Laboratory results reported in patent US10350271B2, “Lipidated peptides for lowering blood glucose” (USTAV ORGANICKE CHEMIE A BIOCHEMIE AKADEMIE VED CR, V.V.I., priority 2014, dated 2019).
Marks after values point to notes of the source that are not given here. Numbered stars: 1 amine (or outer) side, 2 acyl side, 3 side chain; on linkers, the order of the positions; unused ones are H or OH. Side chains are listed from the residue outwards. Ends that are not written are not given here. Peptide text beside a SMILES is read from it. * marks the point of attachment. γGlu = O=C(O)[C@H](CCC(=O)[*:2])N[*:1]; Palmitoyl = CCCCCCCCCCCCCCCC(=O)*

How the values were obtained:
[1] = biological target: T1, human PrRP receptor GPR10 (Homo sapiens, UniProt P49683); experiment: Competitive binding in CHO cells transfected with human GPR10 (human 125I-PrRP31)
T1 construct: host or cells: CHO cells
T1 sequence (P49683 1-370): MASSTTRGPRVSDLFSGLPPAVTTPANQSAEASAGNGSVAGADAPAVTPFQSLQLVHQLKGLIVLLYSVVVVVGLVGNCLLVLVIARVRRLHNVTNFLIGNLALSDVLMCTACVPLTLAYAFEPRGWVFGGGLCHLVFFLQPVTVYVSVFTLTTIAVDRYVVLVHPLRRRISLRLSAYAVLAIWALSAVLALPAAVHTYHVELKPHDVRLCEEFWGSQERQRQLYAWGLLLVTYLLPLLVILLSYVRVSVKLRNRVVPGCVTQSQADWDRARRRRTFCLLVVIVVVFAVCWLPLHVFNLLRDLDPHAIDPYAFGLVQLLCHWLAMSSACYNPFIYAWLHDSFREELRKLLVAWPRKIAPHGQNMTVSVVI
Method in brief: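 GPR10-transfected CHO cells (40-80 thousand/well) incubated 60 min at room temperature with 5×10^-11 mol·l^-1 human 125I-PrRP31 and unlabeled analog at 10^-11 to 10^-4 mol·l^-1 in Tris binding buffer pH 7.4. Cells solubilized in 0.1 mol/l NaOH, γ-counted; one-site nonlinear regression fit.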

rat PrRP receptor = biological target: T2, rat PrRP receptor (Rattus norvegicus, UniProt Q64121); experiment: Competitive binding in RC-4B/C rat pituitary cells (125I-rat PrRP31)
T2 construct: host or cells: RC-4B/C rat pituitary cell line
T2 sequence (Q64121 1-370): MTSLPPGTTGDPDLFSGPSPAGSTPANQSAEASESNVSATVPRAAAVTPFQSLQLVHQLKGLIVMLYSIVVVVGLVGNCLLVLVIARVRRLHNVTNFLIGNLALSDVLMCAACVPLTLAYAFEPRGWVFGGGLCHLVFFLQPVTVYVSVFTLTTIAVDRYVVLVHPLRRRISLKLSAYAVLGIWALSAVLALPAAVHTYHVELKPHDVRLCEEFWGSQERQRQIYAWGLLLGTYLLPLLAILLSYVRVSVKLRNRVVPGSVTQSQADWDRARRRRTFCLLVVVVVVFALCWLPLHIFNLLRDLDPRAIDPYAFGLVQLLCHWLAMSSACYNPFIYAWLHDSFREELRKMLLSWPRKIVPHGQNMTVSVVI
Method in brief: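 Intact rat pituitary RC-4B/C cells incubated 60 min at room temperature with […] rat 125I-PrRP31 and unlabeled analog (10^−11 to 10^−4 mol·l^−1) in HEPES pH 7.4 buffer. Cell-bound radioactivity γ-counted after NaOH lysis; one-site competition fit.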

C57BL/6 mice = experiment: Food intake in fasted mice after SC injection; format: in vivo; details: 5 mg/kg SC, 45 min after injection
Method in brief: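 Overnight-fasted animals (food removed 17 h before dosing, water available) in individual cages got saline, PrRP or lipidated PrRP analogs SC at 1-10 mg/kg.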

Wistar rats = experiment: Food intake in fasted rats after SC injection; format: in vivo; details: overnight fasted rats, compared to controls given vehicle
Method: (§1) NMRI mice, C57BL/6 mice, and Wistar rats (AnLab, Prague, Czech Republic) were housed in a temperature of 23° C. and a daily cycle of 12 h light and dark (light from 6:00). They were given ad libitum water and a standard chow diet that contained 25, 9 and 66% of calories of protein, fat and carbohydrate respectively. Energy content of the feed was 3.4 kcal/g (St-1, Mlýn Kocanda, Czech Republic). Db/db mice and their controls (C57BL/6 background) were obtained from Taconic (Denmark), housed under the same conditions as described above, and fed by Altromin (Taconic, Denmark). ZDF-Lepr^fa/Crl, diabetic fa/fa male rats were obtained from Charles River (France), housed under same conditions as described above, and fed with a Purina 5008 diet (IPS Product Supplies Limited, UK). All experiments followed the ethical guidelines for animal experiments and the law of the Czech Republic Nr. 246/1992.
In experiments with C57BL/6 mice or Wistar rats, food intake was measured with overnight fasted animals in individual cages. Food was withdrawn 17 hours prior to injection of lipidated analog of prolactin releasing peptide (PrRP); free access to water was maintained. The administration of either saline, PrRP, or lipidated analogs was performed by SC injection at doses of 1-10 mg/kg (which corresponded to a volume of 0.2 ml/mouse and 0.1 ml/100 g weight of rat). Fifteen minutes after the lipidated analog of prolactin releasing peptide (PrRP) administration, the mice were given pre-weighed food. The food was then weighed every 30 minutes for 5-10 hours. The administration of each dose was performed at least twice, and each group of mice consisted of at least 6 mice.

ZDF diabetic rats = experiment: 21 days repeated administration in diabetic ZDF rats (food intake, OGTT, metabolic parameters); format: in vivo; details: for Cumulative food intake Day 1 / Cumulative food intake Day 1-7 / Cumulative food intake Day 1-14 / Cumulative food intake Day 1-21 / Cholesterol / Insulin / Leptin: ZDF rats
Method: (§2) Rats were subjected to a 21-day food intake experiment. ZDF rats were IP injected with either phosphate-buffered saline pH6 (control) or compound 43 or 52 at a dose of 1 and 5 mg/kg (n=8), twice a day for 21 days. After 21 days of treatment, rats were fasted overnight and OGTT was performed. After initial blood glucose measurement, 2 g/kg glucose solution was administered by oral gavage. Blood glucose was then measured at 15, 30, 60, 90, 120 and 180 min.
as §1
The ZDF rats were treated with vehicle or analogs 43 and 52 (1 and 5 mg/kg IP) dissolved in phosphate buffered saline, pH 6, twice daily for 21 days and sacrificed on day 22. Food intake was measured daily up to day 22. Leptin, insulin, cholesterol and HbA1c levels were measured on day 21. Glucose tolerance test (OGTT) was also performed on day 21.
as §2, with “min. […] The statistical significance, denoted by the asterisk (*), was *P<0.05.” for “min.”

[2] = system: MAPK/ERK1/2 signaling pathway; details: positive control; cited from earlier work

With `CCCCCCCCCCCCCCCC(=O)N[C@@H](CCC(=O)NCCCC[C@H](NC(=O)[C@@H](NC(=O)[C@H](CCC(=O)O)NC(=O)[C@H](CCSC)NC(=O)[C@H](CO)NC(=O)[C@H](Cc1c[nH]cn1)NC(=O)[C@H](CCCNC(=N)N)NC(=O)[C@H](Cc1c[nH]cn1)NC(=O)[C@@H](NC(=O)[C@H](CCCNC(=N)N)NC(=O)[C@@H](N)CO)[C@@H](C)O)[C@@H](C)CC)C(=O)N[C@H](C(=O)N1CCC[C@H]1C(=O)N[C@@H](CC(=O)O)C(=O)N[C@H](C(=O)N[C@@H](CC(N)=O)C(=O)N1CCC[C@H]1C(=O)N[C@@H](C)C(=O)N[C@@H](Cc1c[nH]c2ccccc12)C(=O)N[C@@H](Cc1ccc(O)cc1)C(=O)N[C@@H](C)C(=O)N[C@@H](CO)C(=O)N[C@@H](CCCNC(=N)N)C(=O)NCC(=O)N[C@H](C(=O)N[C@@H](CCCNC(=N)N)C(=O)N1CCC[C@H]1C(=O)N[C@H](C(=O)NCC(=O)N[C@@H](CCCNC(=N)N)C(=O)N[C@@H](Cc1ccccc1)C(N)=O)C(C)C)[C@@H](C)CC)[C@@H](C)CC)[C@@H](C)O)C(=O)O` [Analog 52] (H-SRTHRHSMEIK([γGlu-Palmitoyl])TPDINPAWYASRGIRPVGRF-NH2) the Ki [1] was 5.95 ± 0.72 nM, the “% of PrRP31, GPR10 human receptor transfected in CHO cells” value ([1]; affinity relative to PrRP31) was 65% and the Ki (rat PrRP receptor) was 4.23 ± 2.11 nM. For the same molecule, the “% of PrRP31, RC-4B/C rat pituitary cells” value (rat PrRP receptor; affinity relative to PrRP31) was 57%, the “Food intake in mice % of saline-treated group” value (C57BL/6 mice) was 10% and the “Food intake in rats” value (Wistar rats) was “significantly reduced”. The “Food intake in free fed ZDF diabetic rats” value (ZDF diabetic rats; 5 mg/kg IP twice daily, vs vehicle) was “significantly lowered”, the “Cumulative food intake Day 1” value (ZDF diabetic rats; 1 mg/kg IP twice daily) was 43.0 ± 2.2 g and the “Cumulative food intake Day 1-7” value (ZDF diabetic rats; 1 mg/kg IP twice daily) was 306.9 ± 11.8 g. The “Cumulative food intake Day 1-14” value (ZDF diabetic rats; 1 mg/kg IP twice daily) was 570.9 ± 17.1 g, the “Cumulative food intake Day 1-21” value (ZDF diabetic rats; 1 mg/kg IP twice daily) was 811.5 ± 23.6 g and the “Cumulative food intake Day 1” value (ZDF diabetic rats; 5 mg/kg IP twice daily) was 42.4 ± 2.1 g. The “Cumulative food intake Day 1-7” value (ZDF diabetic rats; 5 mg/kg IP twice daily) was 287.8 ± 12.5* g, the “Cumulative food intake Day 1-14” value (ZDF diabetic rats; 5 mg/kg IP twice daily) was 559.0 ± 21.0* g and the “Cumulative food intake Day 1-21” value (ZDF diabetic rats; 5 mg/kg IP twice daily) was 814.8 ± 26.1 g. It also gave a Cholesterol (ZDF diabetic rats; day 21, 1 mg/kg IP twice daily) of 3.71 ± 0.16 mmol/L, an Insulin (ZDF diabetic rats; day 21, 1 mg/kg IP twice daily) of 268.94 ± 43.40 pmol/L and a Leptin (ZDF diabetic rats; day 21, 1 mg/kg IP twice daily) of 16336 ± 1466 pg/mL. The Cholesterol (ZDF diabetic rats; day 21, 5 mg/kg IP twice daily) was 3.19 ± 0.16 mmol/L, the Insulin (ZDF diabetic rats; day 21, 5 mg/kg IP twice daily) was 183.35 ± 37.49 pmol/L and the Leptin (ZDF diabetic rats; day 21, 5 mg/kg IP twice daily) was 11372 ± 427 pg/mL.

For “PrRP31: prolactin-releasing peptide composed of 31 amino acids, positive control; rat or human form not stated (SRAHQHSMETRTPDINPAWYTGRGIRPVGRF-NH2; ends and bridges not checked)”, the “Initiation of MAPK/ERK1/2 signaling” value [2] is given as “shown to initiate MAPK/ERK1/2 signaling”.
